Structures are written as SMILES. Read-outs that look alike come from different tables or passages of the source.

This note sets out measurements from US11649227B2, “Allosteric chromenone inhibitors of phosphoinositide 3-kinase (PI3K) for the treatment of disease” (Petra Pharma Corporation, priority 2020, dated 2023).

Data set [1] addresses Vps34 (Homo sapiens (Human), UniProt Q8NEB9). Nature of the data set: Selectivity against selected lipid kinases: Vps34. The data set is classed as biochemical.
In data set [2] the target is mTOR (Homo sapiens (Human), UniProt P42345). Nature of the data set: Selectivity against selected lipid kinases: mTOR. The class given is biochemical.
For data set [3], the target named is DNA-PK (Homo sapiens (Human), UniProt P78527). Kind of data set: Selectivity against selected lipid kinases: DNA-PK. The data set is classed as biochemical.
Data set [4] relates to T-47D. Kind of data set: Cellular Assay T-47D. The class given is cell-based. The settings on record: Homo sapiens, T47D; T-47D cells.
Data set [5] addresses PI3K-G (Homo sapiens (Human), UniProt P48736). Nature of the data set: Selectivity against selected lipid kinases: PI3K-G. The data set is classed as biochemical.
In data set [6] the target is PI3K-D (Homo sapiens (Human), UniProt O00329). Kind of data set: Selectivity against selected lipid kinases: PI3K-D. The data set is classed as biochemical.
Chain of PI3K-D (O00329 whole entry): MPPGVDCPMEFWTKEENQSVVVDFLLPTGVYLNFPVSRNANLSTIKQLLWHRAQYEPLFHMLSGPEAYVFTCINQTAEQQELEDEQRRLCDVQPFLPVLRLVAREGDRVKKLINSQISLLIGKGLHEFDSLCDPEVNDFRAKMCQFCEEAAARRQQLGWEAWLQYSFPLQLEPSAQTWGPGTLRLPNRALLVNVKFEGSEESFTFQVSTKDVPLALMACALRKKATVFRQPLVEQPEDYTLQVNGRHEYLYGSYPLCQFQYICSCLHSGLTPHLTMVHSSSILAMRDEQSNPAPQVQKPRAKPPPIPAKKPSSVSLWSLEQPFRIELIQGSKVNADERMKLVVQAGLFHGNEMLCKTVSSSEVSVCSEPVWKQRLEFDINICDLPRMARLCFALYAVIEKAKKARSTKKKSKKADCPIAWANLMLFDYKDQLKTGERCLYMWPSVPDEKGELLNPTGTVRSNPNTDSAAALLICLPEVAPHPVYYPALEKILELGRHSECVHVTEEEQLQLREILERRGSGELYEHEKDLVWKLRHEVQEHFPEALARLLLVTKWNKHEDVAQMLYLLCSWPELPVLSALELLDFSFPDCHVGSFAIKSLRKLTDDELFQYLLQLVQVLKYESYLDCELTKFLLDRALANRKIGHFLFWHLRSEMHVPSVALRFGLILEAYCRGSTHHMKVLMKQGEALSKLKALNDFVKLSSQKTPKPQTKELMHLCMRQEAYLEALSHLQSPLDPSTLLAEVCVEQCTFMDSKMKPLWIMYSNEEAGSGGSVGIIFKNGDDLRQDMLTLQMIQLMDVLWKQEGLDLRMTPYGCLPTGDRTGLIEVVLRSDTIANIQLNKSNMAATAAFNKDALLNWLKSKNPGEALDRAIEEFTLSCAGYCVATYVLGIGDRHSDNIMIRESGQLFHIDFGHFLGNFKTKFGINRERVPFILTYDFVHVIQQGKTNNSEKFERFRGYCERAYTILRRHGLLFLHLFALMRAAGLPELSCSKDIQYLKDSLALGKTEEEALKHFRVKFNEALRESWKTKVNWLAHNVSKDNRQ
Chain of PI3K-D (P27986 whole entry partner): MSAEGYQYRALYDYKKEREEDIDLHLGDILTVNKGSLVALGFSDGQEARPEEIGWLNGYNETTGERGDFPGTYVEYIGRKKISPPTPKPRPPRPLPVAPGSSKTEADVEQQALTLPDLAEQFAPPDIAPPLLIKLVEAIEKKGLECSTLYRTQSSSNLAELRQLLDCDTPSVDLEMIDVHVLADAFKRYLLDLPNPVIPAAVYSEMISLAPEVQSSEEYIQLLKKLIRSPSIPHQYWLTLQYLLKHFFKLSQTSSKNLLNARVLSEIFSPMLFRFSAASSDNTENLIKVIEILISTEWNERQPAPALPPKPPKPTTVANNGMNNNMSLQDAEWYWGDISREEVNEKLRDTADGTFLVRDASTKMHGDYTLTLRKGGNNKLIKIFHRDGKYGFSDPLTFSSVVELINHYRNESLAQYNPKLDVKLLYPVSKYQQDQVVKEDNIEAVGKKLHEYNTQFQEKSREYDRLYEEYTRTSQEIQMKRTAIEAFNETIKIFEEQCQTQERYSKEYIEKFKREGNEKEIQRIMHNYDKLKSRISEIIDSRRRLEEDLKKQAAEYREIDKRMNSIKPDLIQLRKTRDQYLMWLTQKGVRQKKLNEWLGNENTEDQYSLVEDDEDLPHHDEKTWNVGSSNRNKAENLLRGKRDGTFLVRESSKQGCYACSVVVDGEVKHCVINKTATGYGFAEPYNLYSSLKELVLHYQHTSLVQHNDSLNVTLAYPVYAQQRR
Data set [7] can be described thus: Mouse PK Assays. The note with it: in vivo; for clearance: read-out: PK-Mouse: IV Cl; for bioavailability: read-out: PK-Mouse: PO F (%).
The target of data set [8] is PI3K-B (Homo sapiens (Human), UniProt P42338). Kind of data set: Selectivity against selected lipid kinases: PI3K-B. The data set is classed as biochemical.
Chain of PI3K-B (P42338 whole entry): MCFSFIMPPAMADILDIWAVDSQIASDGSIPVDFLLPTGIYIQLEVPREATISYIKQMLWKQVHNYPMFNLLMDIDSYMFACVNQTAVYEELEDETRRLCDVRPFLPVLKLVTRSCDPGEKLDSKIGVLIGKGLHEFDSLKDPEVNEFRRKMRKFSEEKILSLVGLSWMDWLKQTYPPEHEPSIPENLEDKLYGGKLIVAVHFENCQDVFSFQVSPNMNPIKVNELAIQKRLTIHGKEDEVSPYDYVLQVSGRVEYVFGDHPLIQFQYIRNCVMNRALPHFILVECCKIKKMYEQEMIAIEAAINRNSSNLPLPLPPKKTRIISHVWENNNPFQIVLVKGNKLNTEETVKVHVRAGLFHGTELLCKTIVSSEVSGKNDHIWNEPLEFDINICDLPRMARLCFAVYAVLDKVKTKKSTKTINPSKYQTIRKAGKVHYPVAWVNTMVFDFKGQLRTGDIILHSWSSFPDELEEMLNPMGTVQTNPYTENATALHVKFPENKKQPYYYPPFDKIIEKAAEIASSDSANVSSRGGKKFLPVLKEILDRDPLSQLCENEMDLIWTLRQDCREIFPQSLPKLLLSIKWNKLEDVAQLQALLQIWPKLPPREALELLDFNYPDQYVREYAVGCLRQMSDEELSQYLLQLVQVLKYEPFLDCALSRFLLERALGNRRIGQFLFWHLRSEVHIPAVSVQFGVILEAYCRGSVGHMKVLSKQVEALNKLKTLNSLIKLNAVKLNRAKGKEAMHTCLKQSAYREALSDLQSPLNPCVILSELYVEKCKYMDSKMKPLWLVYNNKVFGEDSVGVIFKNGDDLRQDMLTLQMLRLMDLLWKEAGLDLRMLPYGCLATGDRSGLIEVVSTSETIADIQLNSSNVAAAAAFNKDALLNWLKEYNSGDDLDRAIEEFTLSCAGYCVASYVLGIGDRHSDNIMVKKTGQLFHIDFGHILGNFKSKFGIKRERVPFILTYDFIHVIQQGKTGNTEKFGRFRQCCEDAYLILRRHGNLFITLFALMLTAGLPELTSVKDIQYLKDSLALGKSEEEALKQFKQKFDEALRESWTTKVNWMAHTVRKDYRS
Chain of PI3K-B (P27986 whole entry partner): as the sequence (P27986 whole entry partner) above
Where [9] appears, read: IV 1 mg/kg, read-out: PK-Mouse: IV-AUC-0-last.
[10] abbreviates: PO 10 mg/kg, 20% DMSO/60% PEG400/20% Water, fed.
Where [11] appears, read: PO 50 mg/kg, 20% DMSO/60% PEG400/20% Water, fed.
[12] abbreviates: PO 50 mg/kg, 20% DMSO/60% PEG400/20% Water, fed, read-out: PK-Mouse: PO AUC-0-last.
[13] abbreviates: PO 10 mg/kg, 30% SBE-beta-cyclodextrin, fed.

Chain of PI3K-G (P48736 whole entry): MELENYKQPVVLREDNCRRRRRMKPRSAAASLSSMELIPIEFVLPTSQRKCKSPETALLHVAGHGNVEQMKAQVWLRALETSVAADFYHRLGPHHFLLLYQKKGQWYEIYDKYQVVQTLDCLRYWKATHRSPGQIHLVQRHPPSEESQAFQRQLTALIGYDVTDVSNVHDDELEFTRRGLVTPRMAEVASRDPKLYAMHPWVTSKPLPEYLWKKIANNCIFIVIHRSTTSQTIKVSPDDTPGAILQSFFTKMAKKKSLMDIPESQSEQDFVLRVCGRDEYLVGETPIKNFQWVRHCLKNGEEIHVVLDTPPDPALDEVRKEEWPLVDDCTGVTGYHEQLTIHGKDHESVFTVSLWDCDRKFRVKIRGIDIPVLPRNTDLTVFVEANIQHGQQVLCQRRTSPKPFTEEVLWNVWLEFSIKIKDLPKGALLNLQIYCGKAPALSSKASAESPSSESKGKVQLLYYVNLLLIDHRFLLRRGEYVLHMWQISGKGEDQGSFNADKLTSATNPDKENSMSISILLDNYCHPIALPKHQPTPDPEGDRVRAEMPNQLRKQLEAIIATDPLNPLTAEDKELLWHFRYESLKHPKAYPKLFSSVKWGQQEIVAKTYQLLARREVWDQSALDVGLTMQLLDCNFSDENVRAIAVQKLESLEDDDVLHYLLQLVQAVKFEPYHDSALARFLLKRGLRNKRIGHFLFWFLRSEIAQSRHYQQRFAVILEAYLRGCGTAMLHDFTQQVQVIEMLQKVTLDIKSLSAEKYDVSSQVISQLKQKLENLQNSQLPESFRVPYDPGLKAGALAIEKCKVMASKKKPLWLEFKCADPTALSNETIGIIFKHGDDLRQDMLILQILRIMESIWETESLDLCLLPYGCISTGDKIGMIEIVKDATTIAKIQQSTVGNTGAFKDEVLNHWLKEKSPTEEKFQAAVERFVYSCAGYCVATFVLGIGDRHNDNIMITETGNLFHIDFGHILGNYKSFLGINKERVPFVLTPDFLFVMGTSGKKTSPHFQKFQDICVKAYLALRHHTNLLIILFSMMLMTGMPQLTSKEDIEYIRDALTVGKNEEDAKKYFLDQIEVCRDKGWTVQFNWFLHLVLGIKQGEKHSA
Chain of Vps34 (Q8NEB9 whole entry, species assumed): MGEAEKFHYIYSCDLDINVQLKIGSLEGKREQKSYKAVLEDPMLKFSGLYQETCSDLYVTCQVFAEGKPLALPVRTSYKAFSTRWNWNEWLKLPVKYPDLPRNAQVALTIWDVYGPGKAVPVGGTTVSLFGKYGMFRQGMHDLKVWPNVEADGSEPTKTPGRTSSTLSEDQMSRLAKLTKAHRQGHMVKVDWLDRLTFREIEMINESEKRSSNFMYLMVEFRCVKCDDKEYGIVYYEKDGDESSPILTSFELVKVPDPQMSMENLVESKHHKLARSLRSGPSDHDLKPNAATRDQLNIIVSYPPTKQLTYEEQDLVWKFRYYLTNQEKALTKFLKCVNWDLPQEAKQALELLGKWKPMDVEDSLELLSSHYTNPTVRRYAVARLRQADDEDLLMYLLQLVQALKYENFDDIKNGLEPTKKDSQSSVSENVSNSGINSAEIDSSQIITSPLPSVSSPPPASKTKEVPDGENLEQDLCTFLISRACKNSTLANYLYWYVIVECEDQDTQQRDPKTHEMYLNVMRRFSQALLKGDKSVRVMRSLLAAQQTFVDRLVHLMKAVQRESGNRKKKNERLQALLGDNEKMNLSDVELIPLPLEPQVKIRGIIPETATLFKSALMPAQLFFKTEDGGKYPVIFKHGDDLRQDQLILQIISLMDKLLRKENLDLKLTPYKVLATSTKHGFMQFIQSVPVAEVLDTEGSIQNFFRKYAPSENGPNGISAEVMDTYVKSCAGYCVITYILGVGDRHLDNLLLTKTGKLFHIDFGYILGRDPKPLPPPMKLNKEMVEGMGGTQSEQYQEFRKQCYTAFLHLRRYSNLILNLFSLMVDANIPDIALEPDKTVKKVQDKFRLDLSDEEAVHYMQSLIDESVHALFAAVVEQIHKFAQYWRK

As a reminder, the IC50 is the concentration that inhibits the measured activity by half. Read a high IC50 as a need for much substance. In general, EC50 refers to the concentration needed to bring the measured effect to its halfway point. A high value points to a need for much substance. Broadly, the Cmax is the highest concentration seen after dosing. Regarding `Cc1cc(C(C)Nc2ccccc2C(=O)O)c2oc(N3Cc4ccccc4C3)cc(=O)c2c1` (single isomer, unassigned) [Example 363, 2-[1-(2-Isoindolin-2-yl-6-methyl-4-oxo-chromen-8-yl)ethylamino]benzoic acid], the IC50 in data set [1] is 0.45 µM; in data set [2], 7.8 µM; in data set [3], 0.98 µM; in data set [5], greater than 10 µM; in data set [6] it was greater than 10 µM; in data set [8], 0.11 µM. For the same compound, the EC50 in data set [4] was 1 to 5 µM. The clearance in data set [7] (IV 1 mg/kg) was found to be 8.2 mL/min/kg. Further, the AUC(0-t) is 2130 ng·h/mL in data set [7] (setting [9]); 18000 ng·h/mL in data set [7] (PO 10 mg/kg, 20% DMSO/60% PEG400/20% Water, fed, read-out: PK-Mouse: PO AUC-0-last); 31000 ng·h/mL in data set [7] (setting [12]). The Cmax in data set [7] (setting [10]) amounted to 1300 ng/mL; in data set [7] (setting [11]), 5100 ng/mL. Also, the bioavailability turned out to be 87% in data set [7] (setting [10]) and 33% in data set [7] (setting [11]).

With `Cc1cc(C(C)Nc2ccccc2C(=O)O)c2oc(N3CCC(C)(C)CC3)cc(=O)c2c1` (single isomer, unassigned) [Example 366, 2-[1-[2-(4,4-Dimethyl-1-piperidyl)-6-methyl-4-oxo-chromen-8-yl]ethylamino]benzoic acid], the IC50 in data set [1], in data set [2], in data set [3], in data set [5], in data set [6] and in data set [8] was greater than 10 µM each time. In addition, in data set [4], the EC50 is 1 to 5 µM. Further, the clearance in data set [7] (IV 1 mg/kg) is 43 mL/min/kg. Besides, the AUC(0-t) in data set [7] (setting [9]) stood at 343 ng·h/mL; in data set [7] (PO 10 mg/kg, 30% SBE-beta-cyclodextrin, fed, read-out: PK-Mouse: PO AUC-0-last) it was 3.9 ng·h/mL; in data set [7] (setting [12]) it was 48 ng·h/mL; in data set [7] (PO 100 mg/kg, 20% DMSO/60% PEG400/20% H2O, fed, read-out: PK-Mouse: PO AUC-0-last), 76 ng·h/mL. The Cmax was found to be 350 ng/mL in data set [7] (setting [13]); 8.56 ng/mL in data set [7] (setting [11]); 22.6 ng/mL in data set [7] (PO 100 mg/kg, 20% DMSO/60% PEG400/20% H2O, fed). Besides, the bioavailability in data set [7] (setting [13]) was determined as 100%.
